# According to patent publication US20150217004A1, “CARBAMATE COMPOUNDS AND METHODS OF USE IN DISEASES OF THE NERVOUS SYSTEM” (priority 2012, published 2015):
# How the values were obtained:
# BuChE = assay: In vitro autoradiography with human tissues (Alzheimer's disease or cognitively normal); assay type: binding; details: 3.7 MBq, 18 hours at 37° C., maleate buffer pH 6.8, FIG. 3
# Experimental: Human tissue from Alzheimer's disease or cognitively normal individuals was obtained from the Maritime Brain Tissue Bank (Halifax, Canada). These tissues were adjacent […] sections through areas such as the orbitofrontal cortex. The tissues were mounted on glass slides, in maleate buffer pH 6.8, and gently heated on a slide warmer until firmly adhered. The mounted tissue was rehydrated twice for 5 min, in maleate buffer pH 6.8, before placed in a coplin jar. Nine sections occupied each jar. 25 mL of maleate buffer pH 6.8 containing Phenyl 4-([^123I]iodo)phenylcarbamate (3.7 MBq) was added to the coplin jar and the tissue incubated for 18 hours at 37° C. with gentle agitation. At the completion of incubation, the tissue was rinsed twice for 1 min in distilled water and the slides dried on a slide wanner. The tissue was exposed to a high resolution phosphorimaging screen (GE Healthcare) for 22.5 hours. The screen was scanned with a typhoon 9400 imager (GE Healthcare) to produce the autoradiogram. Image contrast was adjusted with Adobe Photoshop CS5.
# human serum BuChE = target: T1, human serum BuChE (Homo sapiens, UniProt P06276); assay: Esterase activity assay (Ellman), enzyme deactivation over time, BuChE; assay type: biochemical; details: FIG. 2
# T1 construct: 0.05 units of purified human serum BuChE; from tissue; host or cells: human serum
# T1 sequence (P06276 29-602): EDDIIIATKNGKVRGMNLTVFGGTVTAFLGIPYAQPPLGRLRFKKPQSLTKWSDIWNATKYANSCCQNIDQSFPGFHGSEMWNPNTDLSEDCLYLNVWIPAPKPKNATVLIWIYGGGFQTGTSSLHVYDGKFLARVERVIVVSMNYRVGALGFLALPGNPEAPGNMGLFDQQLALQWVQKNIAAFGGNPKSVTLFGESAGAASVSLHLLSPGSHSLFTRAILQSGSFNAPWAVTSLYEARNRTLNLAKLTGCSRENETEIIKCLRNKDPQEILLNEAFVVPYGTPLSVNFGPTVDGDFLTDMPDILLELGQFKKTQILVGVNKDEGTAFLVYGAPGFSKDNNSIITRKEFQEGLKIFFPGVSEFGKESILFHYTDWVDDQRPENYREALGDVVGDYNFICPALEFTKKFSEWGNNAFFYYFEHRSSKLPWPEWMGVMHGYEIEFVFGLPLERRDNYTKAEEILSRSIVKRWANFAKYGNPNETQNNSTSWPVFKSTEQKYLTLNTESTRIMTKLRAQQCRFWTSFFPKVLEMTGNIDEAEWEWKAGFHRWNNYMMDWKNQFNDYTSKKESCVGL
# Experimental: (§1) The ability of the compounds to inhibit cholinesterases was evaluated by Ellman's spectrophotometric method (Ellman, G. L., Courtney, K. D., Andres, V. Jr. and Featherstone, R. M. A new and rapid colorimetric determination of acetylcholinesterase activity. Biochemical Pharmacology, 7, 88-95 (1961)) using human recombinant AChE and. acetylthiocholine as the substrate, and human serum BuChE with butyrylthiocholine as the substrate.
# (§2) To test for enzyme deactivation over time, loss of enzyme activity was monitored. Briefly, 1.35 mL of buffered DTNB solution (pH 8.0), 0.05 mL of enzyme (0.03 units of human recombinant AChE or 0.05 units of purified human serum BuChE in 0.1% aqueous gelatin containing 0.01% sodium azide) and 0.05 mL of the carbamate dissolved in 50% aqueous acetonitrile at 0.5-5 mM, depending on solubility, were combined in a stoppered cuvette of 1 cm path length. After mixing and bringing the absorbance to zero, 0.05 mL of 4.8 mM aqueous acetyl- or butyrylthiocholine substrate solution was added to the cuvette after incubation of the enzyme with carbamate and buffered DTNB for periods of 30 min or longer. A zero-time sample was also obtained by adding enzyme last to initiate reaction and the second-order rate constants for enzyme deactivation (ka values) were determined. The ka value was calculated by plotting ln (e0/et)/[I] against time, where e0 is the enzymatic activity at time zero (without preincubation of enzyme and inhibitor), et is the enzymatic activity at time t min of preincubation, and [I] is the molar concentration of inhibitor. The slope of this plot gave the second-order rate constant. Experiments were generally done at least in triplicate and the values averaged.
# human recombinant AChE = human recombinant AChE (Homo sapiens, UniProt P22303); assay: Esterase activity assay (Ellman), enzyme deactivation over time, AChE; assay type: biochemical; details: FIG. 2
# Sequence of human recombinant AChE (P22303 32-614): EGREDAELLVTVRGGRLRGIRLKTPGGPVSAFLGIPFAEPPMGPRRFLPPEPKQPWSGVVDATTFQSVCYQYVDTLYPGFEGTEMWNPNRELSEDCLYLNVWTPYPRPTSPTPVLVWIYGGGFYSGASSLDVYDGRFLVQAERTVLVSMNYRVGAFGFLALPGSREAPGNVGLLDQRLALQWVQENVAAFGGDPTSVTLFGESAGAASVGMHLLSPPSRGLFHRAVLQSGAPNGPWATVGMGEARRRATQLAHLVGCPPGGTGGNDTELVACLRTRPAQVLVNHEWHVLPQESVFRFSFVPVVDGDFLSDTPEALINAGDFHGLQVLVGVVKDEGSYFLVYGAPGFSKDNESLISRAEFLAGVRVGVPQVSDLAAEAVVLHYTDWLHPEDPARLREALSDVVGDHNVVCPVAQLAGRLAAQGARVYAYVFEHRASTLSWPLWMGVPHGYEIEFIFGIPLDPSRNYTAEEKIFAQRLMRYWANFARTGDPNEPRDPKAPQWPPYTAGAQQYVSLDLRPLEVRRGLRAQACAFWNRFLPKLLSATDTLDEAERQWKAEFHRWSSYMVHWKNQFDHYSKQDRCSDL
# Experimental: as §1, §2
smiles,measurement,setting,value
O=C(Nc1ccc(F)cc1)Oc1ccccc1,melting point,,160 to 161 °C
O=C(Nc1ccc([123I])cc1)Oc1ccccc1 [Phenyl 4-([^123I]iodo)phenylcarbamate],"autoradiography: distinction of normal, normal-with-Aβ-plaques and AD brain tissue",BuChE,normal-with-Aβ-plaques and AD brain tissue can be distinguished
"O=C(Nc1ccc(I)cc1)Oc1ccccc1 [phenyl 4-(iodo)phenylcarbamate, Phenyl 4-(iodo)phenylcarbamate]",effect on esterase activity (inhibition),human serum BuChE,clearly has inhibitory effects
same,persistence of interaction (ligand bound to enzyme),human serum BuChE,persisted for hours
same,rate of enzymatic deactivation,human serum BuChE,proceeded rapidly
same,effect on esterase activity (inhibition),human recombinant AChE,clearly has inhibitory effects
same,persistence of interaction (ligand bound to enzyme),human recombinant AChE,persisted for hours
same,rate of enzymatic deactivation,human recombinant AChE,proceeded rapidly
